Columns and labels:
TNFα = experiment: Ex-vivo lipopolysaccharide (LPS) stimulated TNFα in whole blood; set-up: species or system human; conditions: Day 32, geometric mean (%CV)
Description: A patient had to have a minimum of one acceptable sputum sample on Day 20, 26 or 32 to be included in the sputum biomarker evaluation for that treatment period, with the available cell count and biomarker data averaged for each patient. The mean change from baseline (pre-dose on Day 1 of each treatment period) was then compared between treatments using an analysis of covariance (ANCOVA) that included treatment, patient and period as fixed effects, and baseline values as covariate. The mean change from baseline to Day 32 for biomarkers in blood were analysed using the same model as for sputum data. All data were log-transformed before analysis, and the results are presented as ratio of geometric means. […]
Approximately 80 to 100 cells were to be counted per square , with the number of live leukocytes, dead leukocytes and squamous cells counted. […]
Only one of the sputum samples induced at 2 h post-dose on Days 20, 26 or 32 was used to evaluate CHF6001 concentration, with the evaluation performed only if a minimum of 300 mg of residual sputum remained. […] The concentration of CHF6001 was evaluated using a LC-MS/MS method following solid phase extraction. […]
The levels of inflammatory biomarkers were evaluated from blood collected at 2 h post-dose […]
Levels of biomarkers were assessed as follows: […]
• Serum SP-D: Sandwich Immunoassay, using PheraSTAR Plate Reader . […]

patients with COPD = experiment: Forced oscillometry; assay type: in vivo, human; conditions: for Difference in inspiratory resistance (5-19Hz), adjusted mean difference vs placebo (95% CI) / Expiratory reactance (5 Hz), adjusted mean difference vs placebo (95% CI) / Expiratory resistance (5 Hz), adjusted mean difference vs placebo (95% CI) / Expiratory resistance (19 Hz), adjusted mean difference vs placebo (95% CI) / Inspiratory reactance (5 Hz), adjusted mean difference vs placebo (95% CI) / Inspiratory resistance (5 Hz), adjusted mean difference vs placebo (95% CI) / Inspiratory resistance (19 Hz), adjusted mean difference vs placebo (95% CI) / Percentage flow limited breaths, adjusted mean difference vs placebo (95% CI) / Tidal expiratory flow limitation, adjusted mean difference vs placebo (95% CI) / Total reactance (5 Hz), adjusted mean difference vs placebo (95% CI) / Total resistance (5 Hz), adjusted mean difference vs placebo (95% CI) / Total resistance (19 Hz), adjusted mean difference vs placebo (95% CI): change from baseline to Day 32
Experimental: Induced sputum was collected pre-dose on Day 1 of each treatment period (for the first treatment period, the sample could be collected up to 10 days prior to Day 1), and 2 h post-dose on Days 20, 26 and 32 (see the Additional file 1 for further detail on sputum and blood analysis methods). Blood samples were taken pre-dose on Day 1, and pre-dose and at 30 min, and 1, 1.5, 2, 3, 4, 6, 8 and 12 h post-dose on Day 32. Other pre-dose assessments on Days 1 and 32 were spirometry (forced expiratory volume in 1 s [FEV1] and forced vital capacity [FVC]), forced oscillometry, and COPD Assessment Test (CAT), with Baseline Dyspnea Index recorded on Day 1 and Transition Dyspnea Index (TDI) on Day 32. Central and peripheral airways mechanics were assessed using forced oscillometry, with the following values determined: inspiratory and expiratory resistance (at 5 and 19 Hz), inspiratory and expiratory reactance, tidal expiratory flow limitation and the percentage of flow limited breaths.
The mean changes from baseline to Day 32 for lung function, CAT and TDI were analysed using similar methodology to sputum biomarkers, but were not log-transformed. […] The sputum concentration of CHF6001 was also evaluated at 2 h post-dose, using the mean of all values measured on Days 20, 26 and 32. Pharmacokinetic variables were summarised using geometric means and coefficients of variation, except for Tmax,ss, which is presented as median (range).

CS(=O)(=O)Nc1ccc(C(=O)O[C@@H](Cc2c(Cl)c[n+]([O-])cc2Cl)c2ccc(OC(F)F)c(OCC3CC3)c2)cc1OCC1CC1 [CHF6001]
Tumour necrosis factor α ex-vivo, post-baseline (TNFα; 800 µg BID): 2096.916 (177.0) pg/mL
Tumour necrosis factor α ex-vivo, post-baseline (TNFα; 1600 µg BID): 1750.418 (192.0) pg/mL
Difference in inspiratory resistance (5-19Hz), adjusted mean difference vs placebo (95% CI) (patients with COPD; 800 µg BID): –0.09 (–0.32 to 0.13) cmH2O/(L/s)
Expiratory reactance (5 Hz), adjusted mean difference vs placebo (95% CI) (patients with COPD; 800 µg BID): 0.14 (–0.49 to 0.77) cmH2O/(L/s)
Expiratory resistance (5 Hz), adjusted mean difference vs placebo (95% CI) (patients with COPD; 800 µg BID): –0.15 (–0.45 to 0.15) cmH2O/(L/s)
Expiratory resistance (19 Hz), adjusted mean difference vs placebo (95% CI) (patients with COPD; 800 µg BID): –0.04 (–0.23 to 0.15) cmH2O/(L/s)
Inspiratory reactance (5 Hz), adjusted mean difference vs placebo (95% CI) (patients with COPD; 800 µg BID): 0.18 (0.00 to 0.36) cmH2O/(L/s)
Inspiratory resistance (5 Hz), adjusted mean difference vs placebo (95% CI) (patients with COPD; 800 µg BID): –0.07 (–0.33 to 0.20) cmH2O/(L/s)
Inspiratory resistance (19 Hz), adjusted mean difference vs placebo (95% CI) (patients with COPD; 800 µg BID): 0.06 (–0.12 to 0.24) cmH2O/(L/s)
Percentage flow limited breaths, adjusted mean difference vs placebo (95% CI) (patients with COPD; 800 µg BID): 0.95 (–8.51 to 10.41)
Tidal expiratory flow limitation, adjusted mean difference vs placebo (95% CI) (patients with COPD; 800 µg BID): 0.03 (–0.56 to 0.63)
Total reactance (5 Hz), adjusted mean difference vs placebo (95% CI) (patients with COPD; 800 µg BID): 0.13 (–0.30 to 0.56) cmH2O/(L/s)
Total resistance (5 Hz), adjusted mean difference vs placebo (95% CI) (patients with COPD; 800 µg BID): –0.13 (–0.39 to 0.13) cmH2O/(L/s)
Total resistance (19 Hz), adjusted mean difference vs placebo (95% CI) (patients with COPD; 800 µg BID): –0.00 (–0.18 to 0.17) cmH2O/(L/s)
Difference in inspiratory resistance (5-19Hz), adjusted mean difference vs placebo (95% CI) (patients with COPD; 1600 µg BID): 0.05 (–0.18 to 0.27) cmH2O/(L/s)
Expiratory reactance (5 Hz), adjusted mean difference vs placebo (95% CI) (patients with COPD; 1600 µg BID): 0.082 (–0.55 to 0.72) cmH2O/(L/s)
Expiratory resistance (5 Hz), adjusted mean difference vs placebo (95% CI) (patients with COPD; 1600 µg BID): 0.21 (–0.09 to 0.52) cmH2O/(L/s)
Expiratory resistance (19 Hz), adjusted mean difference vs placebo (95% CI) (patients with COPD; 1600 µg BID): 0.14 (–0.05 to 0.33) cmH2O/(L/s)
Inspiratory reactance (5 Hz), adjusted mean difference vs placebo (95% CI) (patients with COPD; 1600 µg BID): 0.14 (–0.04 to 0.32) cmH2O/(L/s)
Inspiratory resistance (5 Hz), adjusted mean difference vs placebo (95% CI) (patients with COPD; 1600 µg BID): 0.23 (–0.03 to 0.50) cmH2O/(L/s)
Inspiratory resistance (19 Hz), adjusted mean difference vs placebo (95% CI) (patients with COPD; 1600 µg BID): 0.17 (–0.01 to 0.35) cmH2O/(L/s)
Percentage flow limited breaths, adjusted mean difference vs placebo (95% CI) (patients with COPD; 1600 µg BID): –2.06 (–11.66 to 7.53)
Tidal expiratory flow limitation, adjusted mean difference vs placebo (95% CI) (patients with COPD; 1600 µg BID): 0.05 (–0.55 to 0.65)
Total reactance (5 Hz), adjusted mean difference vs placebo (95% CI) (patients with COPD; 1600 µg BID): 0.03 (–0.41 to 0.47) cmH2O/(L/s)
Total resistance (5 Hz), adjusted mean difference vs placebo (95% CI) (patients with COPD; 1600 µg BID): 0.22 (–0.04 to 0.49) cmH2O/(L/s)
Total resistance (19 Hz), adjusted mean difference vs placebo (95% CI) (patients with COPD; 1600 µg BID): 0.15 (–0.03 to 0.32) cmH2O/(L/s)
Oscillometry parameters vs placebo (patients with COPD; either dose (800 or 1600 μg BID)): no consistent treatment–placebo differences

— article PMC6688371, “Effect of the inhaled PDE4 inhibitor CHF6001 on biomarkers of inflammation in COPD” (Respiratory Research, 2019)
